Experimental data as given in ChEMBL document CHEMBL4406808, “Synthesis and assessment of phenylacrylamide derivatives as potential anti-oxidant and anti-inflammatory agents” (Eur J Med Chem, 2019).
One block for each compound: values may come before it. The source made the active and inactive calls. The rule behind the calls is not given here.

Tests used:
HBZY-1 [1] = assay: Cytoprotection activity against H2O2-induced cell death in rat HBZY-1 cells assessed as cell viability at 6 uM preincubated with compound for 2 hrs followed by H2O2 addition and measured after 24 hrs by MTT assay (reference value: 62.1%); assay type: functional; conditions: read-out: Activity
HBZY-1 [2] = assay: Cytotoxicity against rat HBZY-1 cells assessed as reduction in cell viability after 2 hrs by MTT assay; assay type: cell-based; conditions: HBZY-1, 2 h
[3] = biological target: Kelch-like ECH-associated protein 1 (Rattus norvegicus) (UniProt P57790); assay: Binding affinity to Keap1 in rat HBZY-1 cells assessed as induction of Nrf2 nuclear translocation by measuring increase in ratio of nuclear to cytosolic Nrf2 level by Western blot analysis; assay type: cell-based
Chain of Kelch-like ECH-associated protein 1 (Rattus norvegicus) (P57790 whole entry): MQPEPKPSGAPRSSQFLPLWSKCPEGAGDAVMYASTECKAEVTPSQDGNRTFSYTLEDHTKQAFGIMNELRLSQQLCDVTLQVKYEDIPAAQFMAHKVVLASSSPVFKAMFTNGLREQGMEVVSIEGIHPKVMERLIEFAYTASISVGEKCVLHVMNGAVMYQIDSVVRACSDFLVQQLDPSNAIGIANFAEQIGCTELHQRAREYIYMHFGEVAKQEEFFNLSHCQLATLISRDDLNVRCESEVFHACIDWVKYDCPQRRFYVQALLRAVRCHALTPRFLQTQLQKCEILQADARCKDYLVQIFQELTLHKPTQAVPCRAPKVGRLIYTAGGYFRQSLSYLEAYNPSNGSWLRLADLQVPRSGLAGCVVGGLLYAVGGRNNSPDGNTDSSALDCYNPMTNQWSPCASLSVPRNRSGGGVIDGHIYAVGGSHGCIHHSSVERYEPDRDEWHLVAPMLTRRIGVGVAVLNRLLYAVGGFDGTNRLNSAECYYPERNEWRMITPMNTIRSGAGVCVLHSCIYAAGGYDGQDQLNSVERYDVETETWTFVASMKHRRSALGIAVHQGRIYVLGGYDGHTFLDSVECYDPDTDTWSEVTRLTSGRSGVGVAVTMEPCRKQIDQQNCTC

[4] = biological target: Kelch-like ECH-associated protein 1 (Rattus norvegicus) (UniProt P57790); assay: Binding affinity to Keap1 in rat HBZY-1 cells assessed as induction of Keap1/Nrf2 signaling by measuring increase in NQO-1 protein expression by Western blot analysis; assay type: cell-based
[5] = biological target: Kelch-like ECH-associated protein 1 (Rattus norvegicus) (UniProt P57790); assay: Binding affinity to Keap1 in rat HBZY-1 cells assessed as induction of Keap1/Nrf2 signaling by measuring increase in HO-1 protein expression by Western blot analysis; assay type: cell-based
[6] = biological target: Kelch-like ECH-associated protein 1 (Rattus norvegicus) (UniProt P57790); assay: Binding affinity to Keap1 in rat HBZY-1 cells assessed as induction of Keap1/Nrf2 signaling by measuring increase in GCLM protein expression by Western blot analysis; assay type: cell-based
[7] = biological target: Kelch-like ECH-associated protein 1 (Rattus norvegicus) (UniProt P57790); assay: Binding affinity to Keap1 in rat HBZY-1 cells assessed as induction of Keap1/Nrf2 signaling by measuring increase in GCLC protein expression by Western blot analysis; assay type: cell-based
[8] = biological target: Kelch-like ECH-associated protein 1 (Rattus norvegicus) (UniProt P57790); assay: Binding affinity to Keap1 in rat HBZY-1 cells assessed as induction of Keap1/Nrf2 signaling by measuring increase in NQO-1 mRNA expression at 6 uM by RT-PCR analysis; assay type: cell-based
[9] = biological target: Kelch-like ECH-associated protein 1 (Rattus norvegicus) (UniProt P57790); assay: Binding affinity to Keap1 in rat HBZY-1 cells assessed as induction of Keap1/Nrf2 signaling by measuring increase in HO-1 mRNA expression at 6 uM by RT-PCR analysis; assay type: cell-based
[10] = biological target: Kelch-like ECH-associated protein 1 (Rattus norvegicus) (UniProt P57790); assay: Binding affinity to Keap1 in rat HBZY-1 cells assessed as induction of Keap1/Nrf2 signaling by measuring increase in GCLM mRNA expression at 6 uM by RT-PCR analysis; assay type: cell-based
[11] = biological target: Kelch-like ECH-associated protein 1 (Rattus norvegicus) (UniProt P57790); assay: Binding affinity to Keap1 in rat HBZY-1 cells assessed as induction of Keap1/Nrf2 signaling by measuring increase in GCLC mRNA expression at 6 uM by RT-PCR analysis; assay type: cell-based
HBZY-1 [12] = assay: Cytoprotection activity against H2O2-induced cell death in rat HBZY-1 cells assessed as increase in cell viability preincubated with compound for 2 hrs followed by H2O2 addition and measured after 24 hrs by MTT assay; assay type: functional, cell-based
HBZY-1 [13] = assay: Antioxidant activity in rat HBZY-1 cells assessed as reduction in H2O2-induced intracellular ROS accumulation incubated with compound prior to H2O2 addition by DCFH-DA based flow cytometry; assay type: functional, cell-based
[14] = biological target: T1, Nuclear factor erythroid 2-related factor 2 (Homo sapiens) (UniProt Q16236); assay: Activation of Nrf2 (unknown origin) expressed in HEK293 cells co-transfected with ARE luciferase reporter plasmid after 16 hrs by dual luciferase reporter gene assay; assay type: cell-based
T1 sequence (whole entry): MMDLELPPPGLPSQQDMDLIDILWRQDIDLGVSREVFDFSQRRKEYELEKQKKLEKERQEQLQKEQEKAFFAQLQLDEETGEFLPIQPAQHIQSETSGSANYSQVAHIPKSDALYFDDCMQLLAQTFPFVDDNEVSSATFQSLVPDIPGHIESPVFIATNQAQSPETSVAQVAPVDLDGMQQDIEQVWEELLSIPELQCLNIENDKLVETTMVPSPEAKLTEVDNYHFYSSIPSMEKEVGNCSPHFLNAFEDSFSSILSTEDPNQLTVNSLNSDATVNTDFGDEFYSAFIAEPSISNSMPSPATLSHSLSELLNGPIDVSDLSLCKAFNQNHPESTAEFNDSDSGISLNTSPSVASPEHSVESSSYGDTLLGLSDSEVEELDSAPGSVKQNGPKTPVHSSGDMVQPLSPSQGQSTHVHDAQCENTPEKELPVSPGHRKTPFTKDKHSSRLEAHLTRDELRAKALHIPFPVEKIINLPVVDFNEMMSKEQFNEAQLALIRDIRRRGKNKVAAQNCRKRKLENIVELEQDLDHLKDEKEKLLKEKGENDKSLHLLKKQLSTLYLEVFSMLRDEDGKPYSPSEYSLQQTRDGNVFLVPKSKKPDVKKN

HBZY-1 [15] = assay: Cytoprotection against H2O2-induced cell death in rat HBZY-1 cells assessed as increase in cell viability at 6 uM preincubated for 2 hrs followed by H2O2 addition and measured after 24 hrs in presence of Nrf2 inhibitor TRG by MTT assay; assay type: functional, cell-based
HBZY-1 [16] = assay: Cytoprotection against H2O2-induced cell death in rat HBZY-1 cells assessed as increase in cell viability at 6 uM preincubated for 2 hrs followed by H2O2 addition and measured after 24 hrs in presence of HO-1 inhibitor ZnPP by MTT assay; assay type: functional, cell-based
HBZY-1 [17] = assay: Cytoprotection against H2O2-induced cell death in rat HBZY-1 cells assessed as increase in cell viability at 6 uM preincubated for 2 hrs followed by H2O2 addition and measured after 24 hrs in presence of GCL inhibitor BSO by MTT assay; assay type: functional, cell-based
HBZY-1 [18] = assay: Antiinflammatory activity in rat HBZY-1 cells assessed as reduction in LPS-induced NO production preincubated for 30 mins followed by LPS stimulation and measured after 24 hrs by Griess assay; assay type: functional, cell-based
HBZY-1 [19] = assay: Antiinflammatory activity in rat HBZY-1 cells assessed as reduction in nitric oxide production at 6 uM preincubated for 30 mins followed by LPS stimulation and measured after 24 hrs in presence of Nrf2 inhibitor TRG by Griess assay; assay type: functional, cell-based
HBZY-1 [20] = assay: Antiinflammatory activity in rat HBZY-1 cells assessed as reduction in NO production at 6 uM preincubated for 30 mins followed by LPS stimulation and measured after 24 hrs in presence of HO-1 inhibitor ZnPP by Griess assay; assay type: functional, cell-based
[21] = biological target: Kelch-like ECH-associated protein 1 (Rattus norvegicus) (UniProt P57790); assay: (§1) Binding affinity to Keap1 in rat HBZY-1 cells transfected with pNF-kB-Luc/pRL-CMV assessed as induction of Keap1/Nrf2 signaling by measuring reduction in LPS-induced NFkappaB activation preincubated for 30 mins followed by LPS stimulation and measured after 12 hrs by luciferase reporter gene assay; assay type: cell-based
[22] = biological target: Kelch-like ECH-associated protein 1 (Rattus norvegicus) (UniProt P57790); assay: as §1, with “activation at 6 uM” for “activation”, “hrs in presence of Nrf2 inhibitor TRG” for “hrs”; assay type: cell-based
[23] = biological target: Kelch-like ECH-associated protein 1 (Rattus norvegicus) (UniProt P57790); assay: as §1, with “activation at 6 uM” for “activation”, “hrs in presence of HO-1 inhibitor ZnPP” for “hrs”; assay type: cell-based
[24] = biological target: Kelch-like ECH-associated protein 1 (Rattus norvegicus) (UniProt P57790); assay: Binding affinity to Keap1 in rat HBZY-1 cells assessed as disruption of Keap1/Nrf2 complex by measuring increase in Nrf2 expression by Western blot analysis; assay type: cell-based
[25] = biological target: Kelch-like ECH-associated protein 1 (Rattus norvegicus) (UniProt P57790); assay: Binding affinity to Keap1 in rat HBZY-1 cells assessed as disruption of Keap1/Nrf2 complex by measuring Nrf2 expression in presence of DTT by Western blot analysis; assay type: cell-based
[26] = biological target: Kelch-like ECH-associated protein 1 (Rattus norvegicus) (UniProt P57790); assay: Binding affinity to Keap1 in rat HBZY-1 cells assessed as disruption of Keap1/Nrf2 complex by measuring reduction in Keap1 protein expression by Western blot analysis; assay type: cell-based
[27] = biological target: Kelch-like ECH-associated protein 1 (Rattus norvegicus) (UniProt P57790); assay: Binding affinity to Keap1 in rat HBZY-1 cells assessed as disruption of Keap1/Nrf2 complex by measuring Keap1 expression in presence of DTT by Western blot analysis; assay type: cell-based
[28] = biological target: Kelch-like ECH-associated protein 1 (Rattus norvegicus) (UniProt P57790); assay: Binding affinity to Keap1 in rat HBZY-1 cells assessed as induction of Keap1/Nrf2 signaling by measuring induction of Nrf2 nuclear translocation by measuring increase in ratio of nuclear to cytosolic Nrf2 level at 6 uM by Western blot analysis; assay type: cell-based; conditions: TDE = time-dependent effect
[29] = biological target: Kelch-like ECH-associated protein 1 (Rattus norvegicus) (UniProt P57790); assay: Binding affinity to Keap1 in rat HBZY-1 cells assessed as induction of Keap1/Nrf2 signaling by measuring increase in NQO-1 protein expression at 6 uM by Western blot analysis; assay type: cell-based; conditions: TDE = time-dependent effect
[30] = biological target: Kelch-like ECH-associated protein 1 (Rattus norvegicus) (UniProt P57790); assay: Binding affinity to Keap1 in rat HBZY-1 cells assessed as induction of Keap1/Nrf2 signaling by measuring increase in HO-1 protein expression at 6 uM by Western blot analysis; assay type: cell-based; conditions: TDE = time-dependent effect
[31] = biological target: Kelch-like ECH-associated protein 1 (Rattus norvegicus) (UniProt P57790); assay: Binding affinity to Keap1 in rat HBZY-1 cells assessed as induction of Keap1/Nrf2 signaling by measuring increase in GCLM protein expression at 6 uM by Western blot analysis; assay type: cell-based; conditions: TDE = time-dependent effect
[32] = biological target: Kelch-like ECH-associated protein 1 (Rattus norvegicus) (UniProt P57790); assay: Binding affinity to Keap1 in rat HBZY-1 cells assessed as induction of Keap1/Nrf2 signaling by measuring increase in GCLC protein expression at 6 uM by Western blot analysis; assay type: cell-based; conditions: TDE = time-dependent effect

SMILES: COc1ccc(NC(=O)/C(C#N)=C/c2ccccc2C(F)(F)F)cc1
viability at 6 µM (HBZY-1 [1]): 82.4% | IC50 (HBZY-1 [2]): > 200 µM

SMILES: COc1ccccc1NC(=O)/C(C#N)=C/c1cccc(C)c1
viability at 6 µM (HBZY-1 [1]): 65.6 to 96.4% | IC50 (HBZY-1 [2]): > 200 µM

SMILES: O=C(/C=C/c1ccccc1C(F)(F)F)Nc1ccc(F)c(Cl)c1
viability at 6 µM (HBZY-1 [1]): 65.6 to 96.4% | IC50 (HBZY-1 [2]): > 200 µM

Activity [3]: Active | Activity [4]: Active | Activity [5]: Active | Activity [6]: Active | Activity [7]: Active | Activity [8]: Active | Activity [9]: Active | Activity [10]: Active | Activity [11]: Active
SMILES: Oc1ccc(/C=C/c2cc(O)cc(O)c2)cc1 [RESVERATROL]
viability at 6 µM (HBZY-1 [1]): 76.8%

SMILES: COc1ccc(CNC(=O)/C(C#N)=C/c2ccccc2C(F)(F)F)cc1
viability at 6 µM (HBZY-1 [1]): 80.8% | IC50 (HBZY-1 [2]): > 200 µM

SMILES: C[S+]([O-])CCCCN=C=S (centres undefined) [SULFORAPHANE]
viability at 6 µM (HBZY-1 [1]): 80%

SMILES: COc1ccccc1NC(=O)/C=C/c1ccccc1C(F)(F)F
viability at 6 µM (HBZY-1 [1]): 65.6 to 96.4% | IC50 (HBZY-1 [2]): > 200 µM

SMILES: COc1ccccc1NC(=O)/C(C#N)=C/c1ccccc1C
viability at 6 µM (HBZY-1 [1]): 65.6 to 96.4% | IC50 (HBZY-1 [2]): > 200 µM

SMILES: COc1ccccc1NC(=O)/C(C#N)=C/c1ccc(C)cc1
viability at 6 µM (HBZY-1 [1]): 65.6 to 96.4% | IC50 (HBZY-1 [2]): > 200 µM

SMILES: COc1ccc(CNC(=O)/C=C/c2ccccc2C(F)(F)F)cc1
viability at 6 µM (HBZY-1 [1]): 65.6 to 96.4% | IC50 (HBZY-1 [2]): > 200 µM

SMILES: COc1ccc(/C=C(\C#N)C(=O)Nc2ccccc2OC)cc1
viability at 6 µM (HBZY-1 [1]): 65.6 to 96.4% | IC50 (HBZY-1 [2]): > 200 µM

SMILES: COc1cc(NC(=O)/C=C/c2ccccc2C(F)(F)F)cc(OC)c1OC
viability at 6 µM (HBZY-1 [1]): 65.6 to 96.4% | IC50 (HBZY-1 [2]): > 200 µM

Activity [14]: Dose-dependent effect | Activity [3]: Dose-dependent effect | Activity [4]: Dose-dependent effect | Activity [5]: Dose-dependent effect | Activity [6]: Dose-dependent effect | Activity [7]: Dose-dependent effect | Activity [21]: Dose-dependent effect | Activity [22]: inactive | Activity [23]: inactive | Activity [24]: Active | Activity [25]: inactive | Activity [26]: Active | Activity [27]: inactive | Activity [28]: Tde | Activity [29]: Tde | Activity [30]: Tde | Activity [31]: Tde | Activity [32]: Tde
SMILES: COc1ccccc1NC(=O)/C(C#N)=C/c1ccccc1C(F)(F)F
viability at 6 µM (HBZY-1 [1]): 65.6 to 96.4% | Activity (HBZY-1 [12]): Dose-dependent effect | Activity (HBZY-1 [13]): Dose-dependent effect | Activity (HBZY-1 [15]): inactive | Activity (HBZY-1 [16]): inactive | Activity (HBZY-1 [17]): inactive | Activity (HBZY-1 [18]): Dose-dependent effect | Activity (HBZY-1 [19]): inactive | Activity (HBZY-1 [20]): inactive | IC50 (HBZY-1 [2]): > 200 µM
